Results reported in patent publication US20130324522A1, “INSECT ODORANT RECEPTOR ANTAGONISTS” (THE ROCKEFELLER UNIVERSITY, priority 2010, published 2013).
pIC50: −log10 of the molar value. Read-outs that look alike come from different tables or passages of the source.

Assays:
Assay type in all cases: cell-based
[1] = target: T1, serotonin receptor (5HT3) (Mus musculus, UniProt P23979); test: Ca2+-imaging of stable Flip-In T-Rex cell line 5HT3; conditions: for inhibition at 4 µM: read-out: Percent Inhibition 5HT3; for pIC50: Table B, read-out: IC50 5HT3
T1 construct: Full-length cDNAs for mosquito (Anopheles gambiae) odorant receptor; expressed in transfected cells
T1 sequence (P23979 24-489): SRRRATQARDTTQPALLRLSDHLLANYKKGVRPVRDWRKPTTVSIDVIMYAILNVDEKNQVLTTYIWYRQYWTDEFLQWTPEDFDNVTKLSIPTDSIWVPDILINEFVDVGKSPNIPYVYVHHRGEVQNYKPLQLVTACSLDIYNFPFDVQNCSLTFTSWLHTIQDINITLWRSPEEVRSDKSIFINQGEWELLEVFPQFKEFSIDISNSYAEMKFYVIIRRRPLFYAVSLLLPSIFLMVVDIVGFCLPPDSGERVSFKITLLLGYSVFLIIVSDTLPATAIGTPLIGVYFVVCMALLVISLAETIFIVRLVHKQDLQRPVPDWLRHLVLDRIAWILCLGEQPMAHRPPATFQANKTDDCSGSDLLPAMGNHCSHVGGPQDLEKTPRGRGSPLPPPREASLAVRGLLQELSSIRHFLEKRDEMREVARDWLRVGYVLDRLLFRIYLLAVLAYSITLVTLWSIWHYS
Method: Full-length cDNAs for mosquito (Anopheles gambiae) odorant receptor (OR1, OR2, OR7, OR8, OR28), and fly (Drosophila melanogaster) odorant receptor (Or47a, Or83b), mouse TRP channel (TRPM8), and mouse serotonin receptor (5HT3) were obtained and subcloned into mammalian expression vectors. The following mammalian expression vectors were used:
Stable cell lines Or47a/Or83b and 5HT3 were generated from Flip-In T-Rex cells. Flip-In T-Rex-based cell lines were cultured in DMEM supplemented with these additional antibiotics: 6 μg/mL blasticidin and 100 μg/mL hygromycin.
Cells were trypsinized and split into 35 mm dishes 1 day before transfection. Confluent cells (60-70%) in 35 mm dishes were co-transfected with 1 μg of Or47a/Or83b plasmid in pcDNA5/FRT/TO/IRES plus the pOG44 plasmid or 1 μg of 5HT3 plasmid in pcDNA5/FRT/TO plus the pOG44 plasmid using lipofectamine 2000. Co-transfection of pOG44 and pcDNA5/FRT/TO/IRES or pcDNA5/FRT/TO allows expression of Flp recombinase and integration of the pcDNA5 plasmid into the genome via the FRT site. After one day of incubation, the transfected cells were transferred into 10 cm dishes with DMEM containing antibiotics: 20 μg/mL of hygromycin and 6 μg/mL of blasticidin. The concentration of Hygromycin was increased to 100 μg/mL when the population of cells became 30-40% confluent. The cells were cultured by changing medium every two days until cell clumps appeared. The clumps were picked and transferred into 96 well plates with DMEM containing 100 μg/mL of Hygromycin and 6 μg/mL of blasticidin. The cells were grown and transferred to 24 well plates, and ligand-evoked calcium increases were tested using the Hamamatsu FDSS6000 real time fluorescence plate reader.
(§1) Stable cell lines were cultured in 10 cm dishes, and confluent cells (70-80%) were trypsinized. 10,000 cells/20 μL were transferred into each well of 384-well plates coated with poly-D-lysine, and cultured for 2 days. For Flip-In T-Rex cells (cell lines expressing Or47a/Or83b and 5HT3), 5 μL of tetracycline (5 μg/mL) were added 1 day before the assay. 20 μL of Ca-4 dye was loaded into each well for 1.5 hr at room temperature in the dark, and the dye-loaded plates were subjected to Ca^2+-imaging using a Hamamatsu FDSS6000 real time fluorescence plate reader. Odorant solutions (9× final concentration) were prepared by dissolving 1M stock solutions into Hank's Buffered Salt Solution (HBSS), and 30 μL of odor solution was transferred to each well in 384-well plates.
(§2) Compounds ([…] in DMSO) were stored in 384-well plates, and last two columns (32 wells total) contained only DMSO. 200 nL of small compounds were transferred into the odorant plates before the assay using the Perkin-Elmer Janus workstation. The odorant plates were spun down to remove air bubbles, and placed on the FDSS6000 plate loader, and 5 μL of odorant solution was applied to the cell plate on the FDSS6000. Ca^2+ increase was monitored with fluorescence at 525 nm by excitation at 485 nm.

[2] = target: OR10/OR7 (Anopheles gambiae, UniProt B5U0U7+Q7QCC7); test: Ca2+-imaging of stable HEK293T cell line OR10/OR7; conditions: for inhibition at 4 µM: HEK-293T, read-out: Percent Inhibition OR10 OR7
Sequence of OR10/OR7 (Q7QCC7 whole entry): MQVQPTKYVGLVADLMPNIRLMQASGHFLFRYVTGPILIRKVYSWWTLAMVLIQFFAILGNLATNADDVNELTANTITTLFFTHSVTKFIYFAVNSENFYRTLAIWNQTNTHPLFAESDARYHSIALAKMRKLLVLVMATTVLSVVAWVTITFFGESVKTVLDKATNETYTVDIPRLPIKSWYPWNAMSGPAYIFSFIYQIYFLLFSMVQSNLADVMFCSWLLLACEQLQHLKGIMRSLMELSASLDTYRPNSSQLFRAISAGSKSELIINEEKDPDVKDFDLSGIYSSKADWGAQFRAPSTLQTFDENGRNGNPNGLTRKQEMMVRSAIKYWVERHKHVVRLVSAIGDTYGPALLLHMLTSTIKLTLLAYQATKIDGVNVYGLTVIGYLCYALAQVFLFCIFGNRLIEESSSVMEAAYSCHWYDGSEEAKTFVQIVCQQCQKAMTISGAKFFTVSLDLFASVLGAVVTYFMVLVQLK
Sequence of OR10/OR7 (B5U0U7 entry or part of it): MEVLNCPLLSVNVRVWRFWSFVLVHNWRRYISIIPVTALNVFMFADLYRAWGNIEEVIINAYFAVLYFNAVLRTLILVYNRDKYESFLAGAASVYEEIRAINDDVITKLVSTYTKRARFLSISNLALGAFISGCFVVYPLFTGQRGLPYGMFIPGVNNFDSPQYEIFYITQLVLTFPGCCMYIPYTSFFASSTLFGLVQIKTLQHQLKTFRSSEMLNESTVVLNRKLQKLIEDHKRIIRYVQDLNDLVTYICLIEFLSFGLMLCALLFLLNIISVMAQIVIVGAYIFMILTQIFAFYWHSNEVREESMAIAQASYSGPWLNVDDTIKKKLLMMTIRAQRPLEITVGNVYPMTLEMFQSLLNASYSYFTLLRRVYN
Method: Stable cell lines OR1/OR7, OR2/OR7, OR8/OR7, OR10/OR7, OR28/OR7 and TRPM8 were generated from HEK293T cells. HEK293T-based cell lines were cultured in DMEM supplemented with these additional antibiotics: 6 μg/mL blasticidin and 1 μg/mL puromycin, with the exception of the TRPM8 cell lines, which was cultured in DMEM supplemented with 1 μg/mL puromycin.
After one day of incubation, the transfected cells were transferred into 10 cm dishes with DMEM containing antibiotics as follows: • 0.5 μg/mL of blasticidin for OR1/OR7, OR2/OR7, OR8/OR7, OR10/OR7, OR28/OR7 • 0.2 μg/mL of puromycin for TRPM8.
as §1, §2

[3] = target: T2, mOREG (Mus musculus, UniProt Q920P2); test: Ca2+-imaging, control receptor mOREG; conditions: for inhibition at 4 µM: read-out: Percent Inhibition mOREG
T2 sequence (Q920P2 1-313): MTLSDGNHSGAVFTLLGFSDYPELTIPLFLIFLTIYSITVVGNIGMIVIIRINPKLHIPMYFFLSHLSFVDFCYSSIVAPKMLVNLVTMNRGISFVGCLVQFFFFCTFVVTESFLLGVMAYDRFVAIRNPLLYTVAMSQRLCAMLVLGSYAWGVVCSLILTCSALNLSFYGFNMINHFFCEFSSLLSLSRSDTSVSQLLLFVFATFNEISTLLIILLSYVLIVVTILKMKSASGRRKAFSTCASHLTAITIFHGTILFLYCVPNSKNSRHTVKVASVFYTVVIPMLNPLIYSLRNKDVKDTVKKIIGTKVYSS
Method: as §1, with “plates. The last two columns of the plate (32 wells total) were used as control wells as follows: • negative control with HBSS buffer (16 wells) • positive control with ligands (16 wells).” for “plates.”
as §2

CCN(CC)C(=O)Oc1ccc2c(ccn2Cc2ccc(Cl)cc2)c1NC(=O)C1CC1 [RU-0075475]
inhibition at 4 µM [1]: < 25% | pIC50 [2]: > 7.00 | inhibition at 4 µM [2]: > 75% | inhibition at 4 µM [3]: < 25%

C=CCN(Cc1nccn1Cc1ccccc1C)C(=O)CC(C)C [RU-0058298]
inhibition at 4 µM ([1]; compound applied at 4 μM): 26 to 50% | inhibition at 4 µM ([2]; compound applied at 4 μM): > 75% | pIC50 ([2]; Table B, read-out: IC50 OR10): > 7.00 | inhibition at 4 µM ([3]; compound applied at 4 μM): 26 to 50%

CCN(CC)C(=O)Oc1ccc2c(ccn2Cc2cccc(C)c2)c1NC(=O)CCCCC(=O)OC [RU-0075445]
inhibition at 4 µM [1]: < 25% | inhibition at 4 µM [2]: < 25% | inhibition at 4 µM [3]: < 25%

Cc1cccc(NC(=O)CCC2CCN(C(=O)CCOc3ccccc3)CC2)c1 [RU-0030324]
inhibition at 4 µM ([1]; compound applied at 4 μM): 26 to 50% | inhibition at 4 µM ([2]; compound applied at 4 μM): 26 to 50% | pIC50 ([3]; Table B): < 6.00 | inhibition at 4 µM ([3]; compound applied at 4 μM): 51 to 74%

Cc1c(C(=O)NCc2ccco2)cnn1-c1ccccc1 [RU-0047765]
inhibition at 4 µM ([1]; compound applied at 4 μM): < 25% | inhibition at 4 µM ([2]; compound applied at 4 μM): 51 to 74% | pIC50 ([2]; Table B, read-out: IC50 OR10): > 7.00 | inhibition at 4 µM ([3]; compound applied at 4 μM): < 25%

O=C(c1ccco1)N(Cc1nccn1Cc1c(F)cccc1Cl)C1CC1 [RU-0048046]
inhibition at 4 µM ([1]; compound applied at 4 μM): < 25% | inhibition at 4 µM ([2]; compound applied at 4 μM): 51 to 74% | pIC50 ([2]; Table B, read-out: IC50 OR10): > 7.00 | inhibition at 4 µM ([3]; compound applied at 4 μM): < 25%

COc1cccc(NC(=O)CCC2CCN(C(=O)CSc3ccccc3)CC2)c1 [RU-0032474]
inhibition at 4 µM ([1]; compound applied at 4 μM): < 25% | inhibition at 4 µM ([2]; compound applied at 4 μM): < 25% | inhibition at 4 µM ([3]; compound applied at 4 μM): < 25%

O=C(C1CCC1)N(Cc1ccco1)Cc1nccn1Cc1ccccc1Cl [RU-0048066]
inhibition at 4 µM ([1]; compound applied at 4 μM): < 25% | inhibition at 4 µM ([2]; compound applied at 4 μM): 51 to 74% | pIC50 ([2]; Table B, read-out: IC50 OR10): > 7.00 | inhibition at 4 µM ([3]; compound applied at 4 μM): < 25%

C=CCN(Cc1nccn1Cc1ccccc1F)C(=O)C1CCCC1 [RU-0058964]
pIC50 [1]: < 6.00 | inhibition at 4 µM ([1]; compound applied at 4 μM): 51 to 74% | inhibition at 4 µM ([2]; compound applied at 4 μM): > 75% | pIC50 ([2]; Table B, read-out: IC50 OR10): > 7.00 | inhibition at 4 µM ([3]; compound applied at 4 μM): 26 to 50%

CC(C)N(Cc1nccn1Cc1c(F)cccc1Cl)C(=O)c1ccc(Cl)cc1 [RU-0055364]
inhibition at 4 µM ([1]; compound applied at 4 μM): < 25% | inhibition at 4 µM ([2]; compound applied at 4 μM): > 75% | pIC50 ([2]; Table B, read-out: IC50 OR10): 6.00 to 7.00 | inhibition at 4 µM ([3]; compound applied at 4 μM): 26 to 50%

COc1ccccc1CCC(=O)N1CCC(CCC(=O)Nc2ccccc2)CC1 [RU-0032455]
inhibition at 4 µM ([1]; compound applied at 4 μM): 26 to 50% | inhibition at 4 µM ([2]; compound applied at 4 μM): < 25% | inhibition at 4 µM ([3]; compound applied at 4 μM): 26 to 50%

COCCNC(=O)c1ccc(CSc2nnc(-c3ccc(C)cc3)n2-c2ccccc2C)cc1 [RU-0053556]
inhibition at 4 µM ([1]; compound applied at 4 μM): < 25% | inhibition at 4 µM ([2]; compound applied at 4 μM): 51 to 74% | pIC50 ([2]; Table B, read-out: IC50 OR10): < 6.00 | inhibition at 4 µM ([3]; compound applied at 4 μM): 26 to 50%

Cc1ccccc1C(=O)N[C@@H]1CCCCC1NC(=O)C1CCN(C(=O)c2cc(C(F)(F)F)cc(C(F)(F)F)c2)CC1 (stereo partly shown) [RU-0045778]
inhibition at 4 µM ([1]; compound applied at 4 μM): 26 to 50% | inhibition at 4 µM ([2]; compound applied at 4 μM): < 25% | inhibition at 4 µM ([3]; compound applied at 4 μM): 26 to 50%

C=CCN(Cc1nccn1Cc1ccccc1F)C(=O)c1cccc(F)c1 [RU-0058232]
pIC50 [1]: < 6.00 | inhibition at 4 µM ([1]; compound applied at 4 μM): 51 to 74% | inhibition at 4 µM ([2]; compound applied at 4 μM): > 75% | pIC50 ([2]; Table B, read-out: IC50 OR10): > 7.00 | inhibition at 4 µM ([3]; compound applied at 4 μM): 26 to 50%

CCOC(=O)C1CCCN(C(=O)c2csc(CSc3nnc(-c4cccc(OC)c4)n3-c3ccc(C)cc3)n2)C1 (stereo not shown) [RU-0071628]
inhibition at 4 µM ([1]; compound applied at 4 μM): 26 to 50% | inhibition at 4 µM ([2]; compound applied at 4 μM): < 25% | inhibition at 4 µM ([3]; compound applied at 4 μM): 26 to 50%

Cc1ccccc1C(=O)N[C@@H]1CCCCC1NC(=O)C1CCCN(S(=O)(=O)c2cc(Cl)ccc2Cl)C1 (stereo partly shown) [RU-0045691]
inhibition at 4 µM ([1]; compound applied at 4 μM): < 25% | inhibition at 4 µM ([2]; compound applied at 4 μM): 26 to 50% | inhibition at 4 µM ([3]; compound applied at 4 μM): 26 to 50%

O=C(CCC1CCN(C(=O)c2cccc(-n3cccn3)c2)CC1)Nc1ccccc1 [RU-0032465]
inhibition at 4 µM ([1]; compound applied at 4 μM): < 25% | inhibition at 4 µM ([2]; compound applied at 4 μM): < 25% | inhibition at 4 µM ([3]; compound applied at 4 μM): 26 to 50%

COCCN(Cc1nccn1Cc1c(F)cccc1Cl)C(=O)CCc1ccccc1 [RU-0058550]
inhibition at 4 µM ([1]; compound applied at 4 μM): < 25% | inhibition at 4 µM ([2]; compound applied at 4 μM): 26 to 50% | inhibition at 4 µM ([3]; compound applied at 4 μM): 26 to 50%

Fc1ccccc1/C=N/Nc1nc(N2CCCCC2)nc(N2CCOCC2)n1 [RU-0018338]
inhibition at 4 µM ([1]; compound applied at 4 μM): 26 to 50% | inhibition at 4 µM ([2]; compound applied at 4 μM): 26 to 50% | inhibition at 4 µM ([3]; compound applied at 4 μM): 26 to 50%

Cc1cccc(Cn2ccnc2CN(C(=O)c2ccccc2F)C2CCCCC2)c1 [RU-0047851]
inhibition at 4 µM ([1]; compound applied at 4 μM): < 25% | inhibition at 4 µM ([2]; compound applied at 4 μM): > 75% | pIC50 ([2]; Table B, read-out: IC50 OR10): > 7.00 | inhibition at 4 µM ([3]; compound applied at 4 μM): 26 to 50%
